Patent US5352703A, “Antitussive and mucus regulating agent, a process for the preparation thereof and pharmaceutical compositions containing it” (priority 1990, dated 1994)
Entries after “also recorded” stand apart in the source; their conditions may differ.

What was measured:
Format in all cases: in vivo
NH3 induced cough = NH3 induced cough in Guinea pig; details: for antitussive activity in words: NH3 cough, p.o., Ambroxol at twice the YS 912 dose
Text: NH3 induced cough in Guinea pig.
23-page 219, 1965 with the changes reported by S. Malandrino et al. (Arzneim. Forsch. Drug. Res, 38, 1141, 1988) was used, comparing YS 912, Ambroxol and two standard control drugs: Fominoben and Codeine phosphate.

[1] = system: Cough induced by mechanical stimulation; assay: Cough induced by mechanical stimulation in dog; details: for antitussive activity in words: mechanical stimulation, p.o., Ambroxol at twice the YS 912 dose
Text: Cough induced by mechanical stimulation in dog.
24 Page 523, was used, comparing YS 912 with Ambroxol, Fominoben and Codeine phosphate.

[2] = Acute pharmacokinetic study in the rat, single administration at equimolecular doses
Procedure: A study was carried out on the rat, by comparing the kinetic profiles of YS 912 and Ambroxol, after single administration at equimolecular doses.

[3] = system: Citric acid induced cough; assay: Citric acid induced cough in Guinea pig; details: for Cough strokes after treatment: mean ± S.E.; for Cough strokes after treatment / % inhibition vs. basal (cough strokes): n = 10; for ED50: Cavia porcellus, ip., citric acid cough, read-out: DE50 (effective dose 50, ED50)
Text: 1. Citric acid induced cough in Guinea pig. The procedure described by R.A. Turner in "Screening methods in pharmacology-Antitussive agents" -Academic Press. New York-chapt. 23-page 219, 1965, with the changes reported by S. Malandrino et al. (Arzneim. Forsch. Drug. REs, 38, 1141, 1988), was used, comparing YS 912 with Ambroxol.

bronchial fluid = assay: Bronchosecretolytic activity (fluorescein amount in bronchial fluid); details: for Fluorescein amount in bronchial fluid: means of 12 animals, controls 0.26 ± 0.03; for ED50: po, bronchosecretolytic activity, read-out: DE50 (calculated effective dose 50)
Text: The procedure described by H. […] Graziani and P. Cazzulani-(I1 Farmaco Ed. Pr. 36, 167; 1981) was used, comparing YS 912 with Ambroxol at the same weight doses.

[4] = "In steady" pharmacokinetic study in the rat, equimolecular doses during 6 days; details: extrapolated to human from rat
[5] = single administration at equimolecular doses

Structure (SMILES) | % inhibition vs. controls (NH3 induced cough; 50 mg/kg p.o.) [%] | % inhibition vs. controls ([1]; 50 mg/kg p.o.) [%] | Cough strokes after treatment ([3]; 12.5 mg/kg ip.) [cough strokes] | % inhibition vs. basal (cough strokes) ([3]; 12.5 mg/kg ip.) [%] | Cough strokes after treatment ([3]; 25 mg/kg ip.) [cough strokes] | % inhibition vs. basal (cough strokes) ([3]; 25 mg/kg ip.) [%] | Cough strokes after treatment ([3]; 50 mg/kg ip.) [cough strokes] | % inhibition vs. basal (cough strokes) ([3]; 50 mg/kg ip.) [%] | ED50 [3] [mg/kg] | % v.s. controls (fluorescein amount) (bronchial fluid; 12.5 mg/kg p.o.) [%] | Fluorescein amount in bronchial fluid (bronchial fluid; 12.5 mg/kg p.o.) | % v.s. controls (fluorescein amount) (bronchial fluid; 25.0 mg/kg p.o.) [%] | Fluorescein amount in bronchial fluid (bronchial fluid; 25.0 mg/kg p.o.) | % v.s. controls (fluorescein amount) (bronchial fluid; 50.0 mg/kg p.o.) [%] | Fluorescein amount in bronchial fluid (bronchial fluid; 50.0 mg/kg p.o.) | ED50 (bronchial fluid) [mg/kg] | antitussive activity in words (NH3 induced cough) | antitussive activity in words [1] | also measured
COc1ccc2c3c1O[C@H]1[C@@H](O)C=C[C@H]4[C@@H](C2)N(C)CC[C@@]341 [Codeina fosfato] | – | – | – | – | – | – | – | – | – | – | – | – | – | – | – | – | – | – | % inhibition vs. controls (NH3 induced cough; 5 mg/kg p.o.): 56.1%; % inhibition vs. controls ([1]; 5 mg/kg p.o.): 63.1%
CN(CC(=O)N1CCOCC1)Cc1c(Cl)cccc1NC(=O)c1ccccc1 [Fominoben] | 63.4 | 59.0 | – | – | – | – | – | – | – | – | – | – | – | – | – | – | – | – | –
Nc1c(Br)cc(Br)cc1CNC1CCC(O)CC1 (stereo not shown) [Ambroxol, 2-Amino-3,5-dibromo-N-(4-hydroxycyclohexyl)benzylamine, reference compound] | – | – | 7.40 ± 1.32 | 19.57 | 6.20 ± 0.61 | 35.42 | 4.80 ± 1.02 | 46.07 | 57.2 | 23.07 | 0.32 ± 0.03 | 26.92 | 0.33 ± 0.02 | 42.30 | 0.37 ± 0.03 | 95.2 | poorly effective, lacking any statistical significance | substantially no effectiveness | last time at which it can be dosed in plasma ([2]; in vivo): 12 h; time of plasmatic concentration peak ([2]; in vivo): second; % inhibition vs. controls (NH3 induced cough; 100 mg/kg p.o.): 34.2%; % inhibition vs. controls ([1]; 100 mg/kg p.o.): 13.5%
O=C(Nc1c(Br)cc(Br)cc1CNC1CCC(O)CC1)c1ccccc1 (stereo not shown) [YS 912, 2-benzoylamino-3,5-dibromo-N-(4-hydroxycyclohexyl)benzylamine] | 61.0 | 54.0 | 2.90 ± 0.60 | 62.34 | 2.30 ± 0.54 | 75.00 | 2.00 ± 0.47 | 78.95 | 4.81 | 19.23 | 0.31 ± 0.03 | 30.76 | 0.34 ± 0.04 | 46.15 | 0.38 ± 0.04 | 60 | high activity | comparable to that of the two control compounds | Tmax ([2]; plasma, single administration, read-out: time of plasmatic concentration peak (converted)): 30 min; adsorption (absorption) ([2]; single administration): fast and high; main metabolite ([2]; single administration): the main metabolite being Ambroxol; AUC compared with Ambroxol [2, 5]: higher value being evidenced also in the case of the AUC; plasmatic half-life, increase over that of Ambroxol [2, 5]: 30%; metabolism: kinetic ([2]; single administration, after the 6th hour): slower kinetic; antitussive activity in words ([3]; 12.5, 25, 50 mg/kg ip., compared with Ambroxol): remarkable antitussive activity; also recorded: higher than that of Ambroxol; potency by ED50 relative to Ambroxol ([3]; ratio to Ambroxol): 14 times; bronchosecretolytic effectiveness in words (bronchial fluid; p.o.): more favourable; plasmatic concentrations in human clinic, extrapolated, two daily YS 912 vs three daily Ambroxol administrations [4]: two daily administrations of YS 912 allow to achieve plasmatic concentrations (and therefore therapeutical effectiveness) which can be compared with those obtained after three daily administrations of Ambroxol
